Legend:
[1] = tested on: motor neurons (astrocyte/motor neuron co-cultures); experiment: Neuronal survival in astrocyte/motor neuron co-cultures; type: cell-based, rat; conditions: for % of labelled motor neurons, very large motor neurons: vehicle alone = 100 ± 2.8; for % of labelled motor neurons, all the motor neurons: vehicle alone = 100 ± 9.4
Method: (§1) The motor-neuron-enriched cultures are prepared using the centrifugation method which was described by R. L. SCHNAAR and A. E. SCHAFFNER, J. Neurosci., 1, 204-217 (1981) and modified by W. CAMU and C. E. HENDERSON, J. Neurosci. Methods, 44, 59-70 (1992). The motor neurons are spread, at a density of 2500 cells per plate, on 35 mm culture plates which have previously been coated with laminin/ornithine in accordance with the method of A. G. ESTEVEZ et al., J. Neurosci., 18 (3), 923-931 (1998). The cultures are then maintained in L15 medium (GIBCO BRL) containing sodium bicarbonate (22 mM), conalbumin (0.1 mg/ml), putrescine (0.1 mM), insulin (5 μg/ml), sodium selenite ([…]), glucose (20 mM), progesterone (21 nM), penicillin (100 IU/ml) and streptomycin (100 μg/ml).
(§2) The astrocytes are obtained from young, one-day-old rats using the slightly modified method of R. P. SANETO and J. DE VELLIS as described in Neurochemistry a practical approach (A. J. TURNER and H. A. St JOHN) IRL Press, Oxford-Washington D.C., pp. 27-63. The spinal cords are dissected out under sterile conditions and freed of meninges and dorsal ganglia. Five to ten spinal cords are transferred into PBS (phosphate buffered saline) and cut before being incubated at 37° C. for 25 minutes in PBS to which 0.25% trypsin has been added. The enzymatic treatment is stopped by adding 10 ml of Dulbecco's modified Eagle medium (DMEM), to which 10% fetal calf serum (FCS) has been added, and the cells are collected by centrifugation. Another step of mechanical dissociation is performed using the end of a 1 ml pipette. The cells are spread, at a density of 1.5-2×10^6 cells per 25 cm^2 of culture medium, in DMEM containing 10% FCS. After 2 days in vitro, the cultures are fed every day. When a visible monolayer of cells has been completed, the cultures are stirred at 250 rpm for 48 hours and, on the following day, the monolayers are treated with cytosine arabinoside (10^−5 M) for 48 hours. The astrocyte monolayers are then amplified to a density of five on 35 mm culture plates for initially 25 cm^2 culture flasks.
The cells are fixed in 4% paraformaldehyde and 0.1% glutaraldehyde in PBS (pH 7.4 and at 4° C. for 15 minutes) and in a cold methanolic solution. The cultures are then washed and the nonspecific sites are blocked with 10% goat serum and 2% bovine serum albumin (BSA) in PBS and treated for immunochemistry using antibodies against the p75 weak affinity neurotrophin receptor or a 200 kD neurofilament protein (Amersham) using the manufacturer's instructions and applying the avidin-biotin-DAB/hydrogen peroxide enhancement reaction.
The astrocytes are treated with 1,6-dimethyl-8β-hydroxymethyl-10α-methoxyergoline in the following manner: the product is dissolved in methanol, sterilized by filtration and used immediately after preparation. The treatment which is applied to the enriched motor neuron cultures is effected by adding aliquots of solutions of the products to be tested to the L15 medium by spreading. The astrocyte monolayers are exposed to the vehicle or to the solutions of the compound to be tested for 24 hours and at different concentrations. […]
(§3) The number of motor neurons is estimated by counting the labelled cells in an area of 0.4-1 cm^2 under a microscope which enlarges 200 times. In all cases, the values are expressed as a percentage of the number of motor neurons which are present in cultures maintained using trophic factors. […]

[2] = tested on: motor neurons (astrocyte-conditioned medium); experiment: Motor neuron survival in medium conditioned by treated spinal astrocyte monolayers (neurotrophic activity produced by spinal astrocytes); type: cell-based, rat; conditions: % of motor neurons in cultures with trophic factors
Method: as §1
as §2, with “When a visible monolayer of cells has been completed, the cultures are stirred at 250 rpm for 48 hours and, on the following day, the monolayers are treated with cytosine arabinoside (10^−5 M) for 48 hours. The astrocyte monolayers are then amplified to a density of five on 35 mm culture plates for initially 25 cm^2 culture flasks.” left out
as §3

[3] = tested on: motor neurons (co-cultures of astrocyte monolayers and motor neurons); experiment: Motor neuron survival, co-cultures of astrocyte monolayers and motor neurons; type: cell-based, rat; conditions: vehicle alone 43.9 ± 4
Method: as §1, §2
The spinal astrocyte cultures consist, to an extent of more than 98%, of flat, polygonal cells which are immunoreactive for the glial fibrillar acid protein (GFAP). The monolayers are exposed to the product to be tested and then incubated with the motor neuron medium in order to obtain a conditioned culture medium. […]
as §3

[4] = tested on: trophic factor-deprived motor neurons; experiment: Neuronal death in motor-neuron-enriched cultures in the absence of trophic factor; type: cell-based
Method: as §1
More than 70% of the cells are immunoreactive for the neurotrophin p75 receptor and the Islet ½ markers for spinal motor neurons. Approximately 70% of the motor neurons die by apoptosis 24 hours after the spreading if the culture is performed in the absence of a trophic factor. […]
as §3

Q: Which results are given for `CO[C@]12C[C@@H](CO)CN(C)[C@@H]1Cc1cn(C)c3cccc2c13` [1,6-Dimethyl-8β-hydroxymethyl-10α-methoxyergoline]?
A: % of labelled motor neurons, very large motor neurons ([1]; 0.1 μM): 122.6 ± 8.2 %; % of labelled motor neurons, all the motor neurons ([1]; 0.1 μM): 123 ± 9.3 %; % of labelled motor neurons, very large motor neurons ([1]; 1 μM): 117 ± 5.6 %; % of labelled motor neurons, all the motor neurons ([1]; 1 μM): 158.9 ± 32 %; % of labelled motor neurons, all the motor neurons ([1]; 10 μM): 137.5 ± 19 %; Motor neuron survival in % ([2]; dilution of the astrocyte-conditioned medium 1:4, vehicle alone 59.9 ± 8): 90.6 ± 4.9 %; Motor neuron survival in % ([2]; dilution of the astrocyte-conditioned medium 1:10, vehicle alone 45.4 ± 4.2): 74.8 ± 6.3 %; Motor neuron survival in % ([2]; dilution of the astrocyte-conditioned medium 1:50, vehicle alone 36.9 ± 3.2): 49.6 ± 5.3 %; Motor neuron survival in % ([3]; tested product 1 nM): 42.5 ± 4%; Motor neuron survival in % ([3]; tested product 10 nM): 48.9 ± 3 %; Motor neuron survival in % ([3]; tested product 100 nM): 57.4 ± 4 %; Motor neuron survival in % ([3]; tested product 1 μM): 68.7 ± 8 %; Neuronal arborization and cell morphology [4]: remain well preserved; Increase of the survival of trophic factor-deprived motor neurons ([4]; p<0.001): 60%
